Measured values reported in patent publication US20050090522A1 (priority 2001, published 2005).
Read-outs that look alike come from different tables or passages of the source.

Tested on: HIV-1
Experiment: HIV-1 single-round infectious luciferase reporter virus (pseudotype) assay in HeLa CD4 CCR5 cells
Type: cell-based
Protocol: • Virus production—Human embryonic Kidney cell line, 293, propagated in Dulbecco's Modified Eagle Medium (Life Technologies, Gaithersburg, Md.) containing 10% fetal Bovine serum (FBS, Sigma, St. Louis, Mo.). • Virus infection—Human epithelial cell line, HeLa, expressing the HIV-1 receptors CD4 and CCR^5 was propagated in Dulbecco's Modified Eagle Medium (Life Technologies, Gaithersburg, Md.) containing 10% fetal Bovine serum (FBS, Sigma, St. Louis, Mo.) and supplemented with 0.2 mg/mL Geneticin (Life Technologies, Gaithersburg, Md.) and 0.4 mg/mL Zeocin (Invitrogen, Carlsbad, Calif.). […] Transfections were performed using lipofectAMINE PLUS reagent as described by the manufacturer (Life Technologies, Gaithersburg, Md.). Experiment • 1. Compound was added to HeLa CD4 CCR5 cells plated in 96 well plates at a cell density of 5×10^4 cells per well in 100 μl Dulbecco's Modified Eagle Medium containing 10% fetal Bovine serum at a concentration of […]. • 2. 100 μl of single-round infectious reporter virus in Dulbecco's Modified Eagle Medium was then added to the plated cells and compound at an approximate multiplicity of infection (MOI) of 0.01, resulting in a final volume of 200 μl per well and a final compound concentration of <10 μM. • 3. Samples were harvested 72 h after infection. • 4. Viral infection was monitored by measuring luciferase expression from viral DNA in the infected cells using a luciferase reporter gene assay kit (Roche Molecular Biochemicals, Indianapolis, Ind.). Infected cell supernatants were removed and 50 μl of Dulbecco's Modified Eagle Medium (without phenol red) and 50 μl of luciferase assay reagent reconstituted as described by the manufacturer (Roche Molecular Biochemicals, Indianapolis, Ind.) was added per well. Luciferase activity was then quantified by measuring luminescence using a Wallac microbeta scintillation counter. • 5. […] An EC50 provides a method for comparing the antiviral potency of the compounds of this invention. The effective concentration for fifty percent inhibition (EC50) was calculated with the Microsoft Excel Xlfit curve fitting software. For each compound, curves were generated from percent inhibition calculated at 10 different concentrations by using a four paramenter logistic model (model 205). Table 1 is the key for the data in Tables 2-4. Cytoxicity assays were conducted with the same HeLa using methodology well known in the art.
In Table 5, X2, X4 etc. indicates the point of attachment. […] The data at 10 μM was calculated in the following manner:
For compounds tested at concentrations less than 10 μM, the percent inhibition at 10 μM was determined by extrapolation using the XLfit curve fitting feature of the Microsoft Excel spreadsheet software. Curves were obtained from 10 data points (% inhibition determined at 10 concentrations of compound) by using a four parameter logistic model (XLfit model 205: y=A+((B−A)/(I+((C/x)^D))), where, A=minimum y, B=maximum y, C=logEC50, D=slope factor, and x and y are known data values. Extrapolations were performed with the A and B parameters unlocked. […]

[1] = Human immunodeficiency virus 1, HeLa-CD4/CCR5, read-out: EC50 Group from TABLE 1, HeLa CD4 CCR5 cells, single-round infectious luciferase reporter virus
[2] = Human immunodeficiency virus 1, HeLa-CD4/CCR5, read-out: EC50 Group from Table 1, Table 2-1, HeLa CD4 CCR5 cells, single-round luciferase reporter virus
[3] = Human immunodeficiency virus 1, HeLa-CD4/CCR5, read-out: EC50 Group from Table 1, Table 4, HeLa CD4 CCR5 cells, single-round luciferase reporter virus

Row | Structure (SMILES) | EC50 [1] | other results
1 | O=C(C(=O)N1CCN(C(=O)c2ccccc2)CC1)c1c[nH]c2c(-c3c[nH]c(=O)cn3)ncc(Cl)c12 [Example 149] | < 1 µM | 
2 | CC1CN(C(=O)c2ccccc2)CCN1C(=O)C(=O)c1c[nH]c2c(-c3ccc4c(c3)OCO4)nccc12 (stereo not drawn) [Example 5, 1-benzoyl-3-methyl-4-[(7-(3,4-methylenedioxyphenyl)-6-azaindol-3-yl)-oxoacetyl]piperazine] | < 1 µM | 
3 | COc1cnc(-c2nc(-c3ccc(C)cc3)n[nH]2)c2[nH]cc(C(=O)C(=O)N3CCN(C(=O)c4ccccc4)[C@H](C)C3)c12 [Example 337] |  | EC50 [2]: < 1 µM
4 | C[C@@H]1CN(C(=O)c2ccccc2)CCN1C(=O)C(=O)c1c[nH]c2c(-c3ccc(O)nc3)nccc12 [Example 122] | < 1 µM | 
5 | Cc1csc(-c2ccnc3c(C(=O)C(=O)N4CCN(C(=O)c5ccccc5)CC4)c[nH]c23)c1 [Example 134] |  | EC50 [3]: < 1 µM
6 | C[C@@H]1CN(C(=O)c2ccccc2)CCN1C(=O)C(=O)c1c[nH]c2c(-c3nccs3)ccnc12 [Example 53, 1-benzoyl-3-(R)-methyl-4-[(7-(thiazol-2-yl)-4-azaindol-3-yl)-oxoacetyl]piperazine] |  | EC50 [3]: < 1 µM
7 | COc1cnc(-c2cn(C)c(=O)cn2)c2[nH]cc(C(=O)C(=O)N3CCN(C(=O)c4ccccc4)CC3)c12 [Example 138, 1-(benzoyl)-4-[(4-methoxy-7-(1-methylpyrazin-2-on-5-yl)-6-azaindol-3-yl)-oxoacetyl]piperazine] | < 1 µM | 
8 | COc1cnc(-c2nccs2)c2[nH]cc(C(=O)C(=O)N3CCN(C(=O)c4ccccn4)CC3)c12 [Example 50] | < 1 µM | 
9 | C[C@@H]1CN(C(=O)c2ccccc2)CCN1C(=O)C(=O)c1c[nH]c2c(-c3cccs3)nccc12 [Example 9, 1-(benzoyl)-3-®-methyl-4-[(7-(thien-2-yl)-6-azaindol-3-yl)-oxoacetyl]piperazine] | < 1 µM | 
10 | COc1cnc(-n2ccc(S(=O)(=O)c3ccc(C)cc3)n2)c2[nH]cc(C(=O)C(=O)N3CCN(C(=O)c4ccccc4)CC3)c12 [Example 286, 1-benzoyl-4-[(4-methoxy-7-(3-(toluene-4-sulfonyl)-pyrazol-1-yl)-6-azaindol-3-yl)-oxoacetyl]piperazine] | < 1 µM | 
11 | CNc1cnc(-c2ncc(OC)c3c(C(=O)C(=O)N4CCN(C(=O)c5ccccc5)CC4)c[nH]c23)cn1 [Example 115, 1-benzoyl-4-[(4-methoxy-7-(2-methylamino-pyrazin-5-yl)-6-azaindol-3-yl)-oxoacetyl]piperazine] | < 1 µM | 
12 | CCN(CC)c1nc(-c2ncc(OC)c3c(C(=O)C(=O)N4CCN(C(=O)c5ccccc5)CC4)c[nH]c23)cs1 [Example 70, 1-benzoyl-4-[(4-methoxy-7-(2-diethylamino-thiazol-4-yl)-6-azaindol-3-yl)-oxoacetyl]piperazine] | < 1 µM | 
13 | COc1cnc(-c2cnccn2)c2[nH]cc(C(=O)C(=O)N3CCN(C(=O)c4cnccn4)CC3)c12 [Example 195] | < 1 µM | 
14 | O=C(C(=O)N1CCN(C(=O)c2ccccc2)CC1)c1c[nH]c2c(-c3cc4ccccc4o3)ccnc12 [Example 203, 1-(7-benzofuran-2-yl-1H-pyrrolo[3,2-b]pyridin-3-yl)-2-(4-benzoyl-piperazin-1-yl)-ethane-1,2-dione] |  | EC50 [3]: < 1 µM
15 | COc1cnc(-n2ccc(CCO)n2)c2[nH]cc(C(=O)C(=O)N3CCN(C(=O)c4ccccc4)CC3)c12 [Example 248, 1-benzoyl-4-[(4-methoxy-7-(3-(3-hydroxylethyl)-pyrazol-1-yl)-6-azaindol-3-yl)-oxoacetyl]piperazine] | < 1 µM | 
16 | COc1cnc(-n2ccc(C3CCC3)n2)c2[nH]cc(C(=O)C(=O)N3CCN(C(=O)c4ccccc4)[C@H](C)C3)c12 [Example 232, (R)-1-benzoyl-2-methyl-4-[(4-methoxy-7-(3-cycloputyl-pyrazol-1-yl)-6-azaindol-3-yl)-oxoacetyl]piperazine] |  | EC50 [2]: < 1 µM
17 | COc1cnc(-n2ccc(CC(C)C)n2)c2[nH]cc(C(=O)C(=O)N3CCN(C(=O)c4ccccc4)CC3)c12 [Example 281, 1-benzoyl-4-[(4-methoxy-7-(3-isobutyl-pyrazol-1-yl)-6-azaindol-3-yl)-oxoacetyl]piperazine] | < 1 µM | 
18 | CON(C)C(=O)c1ccnc2c(C(=O)C(=O)N3CCN(C(=O)c4ccccc4)C[C@H]3C)c[nH]c12 [Example 57] |  | EC50 [3]: < 1 µM
19 | COc1cnc(-n2ccc(NC(C)=O)n2)c2[nH]cc(C(=O)C(=O)N3CCN(C(=O)c4ccccc4)[C@H](C)C3)c12 [Example 262, (R)-1-benzoyl-2-methyl-4-[(4-methoxy-7-(3-acetylamino-pyrazol-1-yl)-6-azaindol-3-yl)-oxoacetyl]piperazine] |  | EC50 [2]: < 1 µM
20 | COc1cnc(-c2cnc(CC(C)C)s2)c2[nH]cc(C(=O)C(=O)N3CCN(C(=O)c4ccccc4)CC3)c12 [Example 90, 1-benzoyl-4-[(4-methoxy-7-(2-isobutyl-thiazol-5-yl)-6-azaindol-3-yl)-oxoacetyl]piperazine] | < 1 µM | 
21 | COc1cnc(-c2ccc(S(C)(=O)=O)cc2)c2[nH]cc(C(=O)C(=O)N3CCN(C(=O)c4ccccn4)[C@H](C)C3)c12 [Example 268] |  | EC50 [2]: < 1 µM
22 | COc1cnc(-n2ccc(-c3ccc(C)nc3)n2)c2[nH]cc(C(=O)C(=O)N3CCN(C(=O)c4ccccc4)CC3)c12 [Example 264, 1-benzoyl-4-[(4-methoxy-7-(3-(2-methylpyridin-5-yl)pyrazol-1-yl)-6-azaindol-3-yl)-oxoacetyl]piperazine] | < 1 µM | 
23 | C[C@@H]1CN(C(=O)c2ccccc2)CCN1C(=O)C(=O)c1c[nH]c2c(-c3cncc(N)n3)nccc12 [Example 111, (R)-1-benzoyl-3-methyl-4-[(7-(2-amino-pyrazin-6-yl)-6-azaindol-3-yl)-oxoacetyl]piperazine] | < 1 µM | 
24 | COc1cnc(-c2cnc(NS(C)(=O)=O)cn2)c2[nH]cc(C(=O)C(=O)N3CCN(C(=O)c4ccccc4)CC3)c12 [Example 47] | < 1 µM | 
25 | COc1cnc(-n2ccc(-c3ccc(C)nc3)n2)c2[nH]cc(C(=O)C(=O)N3CCN(C(=O)c4ccccc4)[C@H](C)C3)c12 [Example 263, (R)-1-benzoyl-2-methyl-4-[(4-methoxy-7-(3-(2-methylpyridin-5-yl)pyrazol-1-yl)-6-azaindol-3-yl)-oxoacetyl]piperazine] |  | EC50 [2]: < 1 µM
26 | C[C@@H]1CN(C(=O)c2ccccn2)CCN1C(=O)C(=O)c1c[nH]c2c(-c3cnccn3)ncc(F)c12 [Example 141] | < 1 µM | 
27 | C[C@@H]1CN(C(=O)c2ccccc2)CCN1C(=O)C(=O)c1c[nH]c2c(-c3cccnc3)nccc12 [Example 18, 1-benzoyl-3-(R)-methyl-4-[(7-(pyridin-3-yl)-6-azaindol-3-yl)-oxoacetyl]piperazine] | < 1 µM | 
28 | O=C(O)c1ccc(-c2nccc3c(C(=O)C(=O)N4CCN(C(=O)c5ccccc5)CC4)c[nH]c23)cc1 [Example 4, 1-benzoyl-4-[(7-(4-carboxy-phenyl)-6-azaindol-3-yl)-oxoacetyl]piperazine] | < 1 µM | 
29 | COc1cnc(-c2cnc(N)cn2)c2[nH]cc(C(=O)C(=O)N3CCN(C(=O)c4ccccc4)CC3)c12 [Example 26] | < 1 µM | 
30 | COc1cnc(-c2ncc(OC)c3c(C(=O)C(=O)N4CCN(C(=O)c5ccccn5)CC4)c[nH]c23)cn1 [Example 182, 1-picolinoyl-4-[(4-methoxy-7-(2-methoxy-pyrazin-5-yl)-6-azaindol-3-yl)-oxoacetyl]piperazine] | < 1 µM | 
